Where a SMILES comes first, the peptide text is derived from it. Where no end group is shown, it is not given here. [ ]: non-standard residue; d: D form. The star is where a group is joined. Ac6c = NC1(C(=O)O)CCCCC1; X1 = CCCN1C(=O)CC(*)C1=O; Ac5c = NC1(C(=O)O)CCCC1; Aib = CC(C)(N)C(=O)O
Key:
[1] = Human plasma half-life assay; type: in vitro ADME; conditions: human plasma, 37° C., LC-MS; read-out: Human Plasma T½ (converted)
Experimental: (§1) B. Human and Rat Plasma Half-Life Assay
(§2) 50 μL was removed at various times, like at 0, 1, 2, 3, 4, 8, 24, 32, 48, 56, 72 hours, mixed with 5 μL formic acid and 150 μL acetonitrile in a microcentrifuge tube, vertexed, and centrifuged for 10 minutes at 10K rpm. The supernatant was transferred to an injection vial and analyzed by LC-MS. The LC-MS system consisted of an API4000 mass spectrometer with an ESI probe. Positive ion mode and full scan detection were used. HPLC separation was carried out on a Luna 3μ C8 (2), 2×30 mm column with a gradient from 90% A to 90% B in 10 minutes at a flow rate of 0.3 ml/min. Buffer A was 1% formic acid in water and buffer B was 1% formic acid acetonitrile.

[2] = Rat plasma half-life assay; type: in vitro ADME; conditions: rat plasma, 37° C., LC-MS; read-out: Rat Plasma T½ (converted)
Experimental: as §1, §2

With `CC[C@H](C)[C@H](NC(=O)[C@H](CO)NC(=O)[C@H](Cc1ccc(O)cc1)NC(=O)[C@H](CC(=O)O)NC(=O)[C@H](CO)NC(=O)[C@@H](NC(=O)[C@H](Cc1ccccc1)NC(=O)C1(NC(=O)CNC(=O)[C@H](CCC(=O)O)NC(=O)C(C)(C)NC(=O)[C@@H](N)Cc2ccc(O)cc2)CCCC1)[C@@H](C)CC)C(=O)N[C@@H](C)C(=O)N[C@@H](CCSC)C(=O)N[C@@H](CC(=O)O)C(=O)N[C@@H](CCCCN)C(=O)N[C@H](C(=O)N[C@@H](Cc1c[nH]cn1)C(=O)N[C@@H](CCC(N)=O)C(=O)N[C@@H](CCC(N)=O)C(=O)N[C@@H](CC(=O)O)C(=O)N[C@@H](Cc1ccccc1)C(=O)N[C@H](C(=O)N[C@@H](CC(N)=O)C(=O)N[C@@H](Cc1c[nH]c2ccccc12)C(=O)N[C@@H](CC(C)C)C(=O)N[C@@H](CC(C)C)C(=O)N[C@@H](C)C(=O)N[C@@H](CCC(N)=O)C(=O)N[C@@H](CCCCN)C(N)=O)C(C)C)[C@@H](C)CC` [Example 11, (Aib^2, A5c^5)hGIP(1-30)-NH2] as the compound, how does the half-life at 0.1 mg/ml [1] read?
The half-life at 0.1 mg/ml was 44.4 h.

What about the half-life at 0.1 mg/ml [2] of the same compound?
Its half-life at 0.1 mg/ml is > 48 h.

With `CC[C@H](C)[C@H](NC(=O)[C@H](CO)NC(=O)[C@H](Cc1ccc(O)cc1)NC(=O)[C@H](CC(=O)O)NC(=O)[C@H](CO)NC(=O)C1(NC(=O)[C@H](Cc2ccccc2)NC(=O)[C@@H](NC(=O)CNC(=O)[C@H](CCC(=O)O)NC(=O)C(C)(C)NC(=O)[C@@H](N)Cc2ccc(O)cc2)[C@@H](C)O)CCCC1)C(=O)N[C@@H](C)C(=O)N[C@@H](CCSC)C(=O)N[C@@H](CC(=O)O)C(=O)N[C@@H](CCCCN)C(=O)N[C@H](C(=O)N[C@@H](Cc1c[nH]cn1)C(=O)N[C@@H](CCC(N)=O)C(=O)N[C@@H](CCC(N)=O)C(=O)N[C@@H](CC(=O)O)C(=O)N[C@@H](Cc1ccccc1)C(=O)N[C@H](C(=O)N[C@@H](CC(N)=O)C(=O)N[C@@H](Cc1c[nH]c2ccccc12)C(=O)N[C@@H](CC(C)C)C(=O)N[C@@H](CC(C)C)C(=O)N[C@@H](C)C(=O)N[C@@H](CCC(N)=O)C(=O)N[C@@H](CCCCN)C(N)=O)C(C)C)[C@@H](C)CC` [Example 12, (Aib^2, A5c^7)hGIP(1-30)-NH2] as the compound, how does the half-life at 0.1 mg/ml [1] read?
Its half-life at 0.1 mg/ml is 20.5 h.

And the half-life at 0.1 mg/ml [2]?
The half-life at 0.1 mg/ml was > 48 h.

For `CC[C@H](C)[C@H](NC(=O)[C@H](CCCCN)NC(=O)[C@H](CC(=O)O)NC(=O)[C@H](CCSC)NC(=O)[C@H](C)NC(=O)C1(NC(=O)[C@H](CO)NC(=O)[C@H](Cc2ccc(O)cc2)NC(=O)[C@H](CC(=O)O)NC(=O)[C@H](CO)NC(=O)[C@@H](NC(=O)[C@H](Cc2ccccc2)NC(=O)[C@@H](NC(=O)CNC(=O)[C@H](CCC(=O)O)NC(=O)C(C)(C)NC(=O)[C@@H](N)Cc2ccc(O)cc2)[C@@H](C)O)[C@@H](C)CC)CCCC1)C(=O)N[C@@H](Cc1c[nH]cn1)C(=O)N[C@@H](CCC(N)=O)C(=O)N[C@@H](CCC(N)=O)C(=O)N[C@@H](CC(=O)O)C(=O)N[C@@H](Cc1ccccc1)C(=O)N[C@H](C(=O)N[C@@H](CC(N)=O)C(=O)N[C@@H](Cc1c[nH]c2ccccc12)C(=O)N[C@@H](CC(C)C)C(=O)N[C@@H](CC(C)C)C(=O)N[C@@H](C)C(=O)N[C@@H](CCC(N)=O)C(=O)N[C@@H](CCCCN)C(N)=O)C(C)C` [Example 13, (Aib^2, A5c^12)hGIP(1-30)-NH2] (H-Y[Aib]EGTFISDYS[Ac5c]AMDKIHQQDFVNWLLAQK-NH2; N-terminus assumed), which half-life at 0.1 mg/ml [1] is on record?
The half-life at 0.1 mg/ml was 35.4 h.

What about the half-life at 0.1 mg/ml [2] of the same compound?
Its half-life at 0.1 mg/ml is > 48 h.

With `CC[C@H](C)[C@H](NC(=O)[C@H](CO)NC(=O)[C@H](Cc1ccc(O)cc1)NC(=O)[C@H](CC(=O)O)NC(=O)[C@H](CO)NC(=O)[C@@H](NC(=O)[C@H](Cc1ccccc1)NC(=O)[C@@H](NC(=O)C(C)(C)NC(=O)[C@H](CCC(=O)O)NC(=O)C(C)(C)NC(=O)[C@@H](N)Cc1ccc(O)cc1)[C@@H](C)O)[C@@H](C)CC)C(=O)N[C@@H](C)C(=O)N[C@@H](CCSC)C(=O)N[C@@H](CC(=O)O)C(=O)N[C@@H](CCCCN)C(=O)N[C@H](C(=O)N[C@@H](Cc1c[nH]cn1)C(=O)N[C@@H](CCC(N)=O)C(=O)N[C@@H](CCC(N)=O)C(=O)N[C@@H](CC(=O)O)C(=O)N[C@@H](Cc1ccccc1)C(=O)N[C@H](C(=O)N[C@@H](CC(N)=O)C(=O)N[C@@H](Cc1c[nH]c2ccccc12)C(=O)N[C@@H](CC(C)C)C(=O)N[C@@H](CC(C)C)C(=O)N[C@@H](C)C(=O)N[C@@H](CCC(N)=O)C(=O)N[C@@H](CCCCN)C(N)=O)C(C)C)[C@@H](C)CC` [Example 14, (Aib^2, 4)hGIP(1-30)-NH2] as the compound, how does the half-life at 0.1 mg/ml [1] read?
Its half-life at 0.1 mg/ml is 34.8 h.

And the half-life at 0.1 mg/ml [2]?
The half-life at 0.1 mg/ml was 48 h.

Which results are given for `CC[C@H](C)[C@H](NC(=O)[C@H](CO)NC(=O)[C@H](Cc1ccc(O)cc1)NC(=O)[C@H](CC(=O)O)NC(=O)[C@H](CO)NC(=O)[C@@H](NC(=O)[C@H](Cc1ccccc1)NC(=O)C(C)(C)NC(=O)CNC(=O)[C@H](CCC(=O)O)NC(=O)C(C)(C)NC(=O)[C@@H](N)Cc1ccc(O)cc1)[C@@H](C)CC)C(=O)N[C@@H](C)C(=O)N[C@@H](CCSC)C(=O)N[C@@H](CC(=O)O)C(=O)N[C@@H](CCCCN)C(=O)N[C@H](C(=O)N[C@@H](Cc1c[nH]cn1)C(=O)N[C@@H](CCC(N)=O)C(=O)N[C@@H](CCC(N)=O)C(=O)N[C@@H](CC(=O)O)C(=O)N[C@@H](Cc1ccccc1)C(=O)N[C@H](C(=O)N[C@@H](CC(N)=O)C(=O)N[C@@H](Cc1c[nH]c2ccccc12)C(=O)N[C@@H](CC(C)C)C(=O)N[C@@H](CC(C)C)C(=O)N[C@@H](C)C(=O)N[C@@H](CCC(N)=O)C(=O)N[C@@H](CCCCN)C(N)=O)C(C)C)[C@@H](C)CC` [Example 15, (Aib^2, 5)hGIP(1-30)-NH2]?
half-life at 0.1 mg/ml [1]: 28.6 h; half-life at 0.1 mg/ml [2]: 46.5 h

What does the source list for `CC[C@H](C)[C@H](NC(=O)[C@H](CO)NC(=O)[C@H](Cc1ccc(O)cc1)NC(=O)[C@H](CC(=O)O)NC(=O)[C@H](CO)NC(=O)C(C)(C)NC(=O)[C@H](Cc1ccccc1)NC(=O)[C@@H](NC(=O)CNC(=O)[C@H](CCC(=O)O)NC(=O)C(C)(C)NC(=O)[C@@H](N)Cc1ccc(O)cc1)[C@@H](C)O)C(=O)N[C@@H](C)C(=O)N[C@@H](CCSC)C(=O)N[C@@H](CC(=O)O)C(=O)N[C@@H](CCCCN)C(=O)N[C@H](C(=O)N[C@@H](Cc1c[nH]cn1)C(=O)N[C@@H](CCC(N)=O)C(=O)N[C@@H](CCC(N)=O)C(=O)N[C@@H](CC(=O)O)C(=O)N[C@@H](Cc1ccccc1)C(=O)N[C@H](C(=O)N[C@@H](CC(N)=O)C(=O)N[C@@H](Cc1c[nH]c2ccccc12)C(=O)N[C@@H](CC(C)C)C(=O)N[C@@H](CC(C)C)C(=O)N[C@@H](C)C(=O)N[C@@H](CCC(N)=O)C(=O)N[C@@H](CCCCN)C(N)=O)C(C)C)[C@@H](C)CC` [Example 16, (Aib^2, 7)hGIP(1-30)-NH2]?
half-life at 0.1 mg/ml [1]: 43.9 h; half-life at 0.1 mg/ml [2]: > 48 h

Which results are given for `CC[C@H](C)[C@H](NC(=O)[C@H](CO)NC(=O)[C@H](Cc1ccc(O)cc1)NC(=O)C(C)(C)NC(=O)[C@H](CO)NC(=O)[C@@H](NC(=O)[C@H](Cc1ccccc1)NC(=O)[C@@H](NC(=O)CNC(=O)[C@H](CCC(=O)O)NC(=O)C(C)(C)NC(=O)[C@@H](N)Cc1ccc(O)cc1)[C@@H](C)O)[C@@H](C)CC)C(=O)N[C@@H](C)C(=O)N[C@@H](CCSC)C(=O)N[C@@H](CC(=O)O)C(=O)N[C@@H](CCCCN)C(=O)N[C@H](C(=O)N[C@@H](Cc1c[nH]cn1)C(=O)N[C@@H](CCC(N)=O)C(=O)N[C@@H](CCC(N)=O)C(=O)N[C@@H](CC(=O)O)C(=O)N[C@@H](Cc1ccccc1)C(=O)N[C@H](C(=O)N[C@@H](CC(N)=O)C(=O)N[C@@H](Cc1c[nH]c2ccccc12)C(=O)N[C@@H](CC(C)C)C(=O)N[C@@H](CC(C)C)C(=O)N[C@@H](C)C(=O)N[C@@H](CCC(N)=O)C(=O)N[C@@H](CCCCN)C(N)=O)C(C)C)[C@@H](C)CC` [Example 18, (Aib^2, 9)hGIP(1-30)-NH2] (H-Y[Aib]EGTFIS[Aib]YSIAMDKIHQQDFVNWLLAQK-NH2; N-terminus assumed)?
half-life at 0.1 mg/ml [1]: 11.3 h; half-life at 0.1 mg/ml [2]: 44.4 h

Which half-life at 0.1 mg/ml [1] does the source give for `CC[C@H](C)[C@H](NC(=O)[C@H](CCCCN)NC(=O)[C@H](CC(=O)O)NC(=O)[C@H](CCSC)NC(=O)[C@H](C)NC(=O)[C@@H](NC(=O)C(C)(C)NC(=O)[C@H](Cc1ccc(O)cc1)NC(=O)[C@H](CC(=O)O)NC(=O)[C@H](CO)NC(=O)[C@@H](NC(=O)[C@H](Cc1ccccc1)NC(=O)[C@@H](NC(=O)CNC(=O)[C@H](CCC(=O)O)NC(=O)C(C)(C)NC(=O)[C@@H](N)Cc1ccc(O)cc1)[C@@H](C)O)[C@@H](C)CC)[C@@H](C)CC)C(=O)N[C@@H](Cc1c[nH]cn1)C(=O)N[C@@H](CCC(N)=O)C(=O)N[C@@H](CCC(N)=O)C(=O)N[C@@H](CC(=O)O)C(=O)N[C@@H](Cc1ccccc1)C(=O)N[C@H](C(=O)N[C@@H](CC(N)=O)C(=O)N[C@@H](Cc1c[nH]c2ccccc12)C(=O)N[C@@H](CC(C)C)C(=O)N[C@@H](CC(C)C)C(=O)N[C@@H](C)C(=O)N[C@@H](CCC(N)=O)C(=O)N[C@@H](CCCCN)C(N)=O)C(C)C` [Example 19, (Aib^2, 11)hGIP(1-30)-NH2] (H-Y[Aib]EGTFISDY[Aib]IAMDKIHQQDFVNWLLAQK-NH2; N-terminus assumed) here?
Its half-life at 0.1 mg/ml is 27.2 h.

What about the half-life at 0.1 mg/ml [2] of the same compound?
Its half-life at 0.1 mg/ml is > 48 h.

With “Y[Aib]EGTF[Ac6c]SDYSIAMDKIHQQDFVNWLLAQKGKKNDWKHC(X1)ITQ-OH [Example 79, [Aib^2, A6c^7, Cys(Psu)^39]hGIP(1-42)-OH]” as the compound, how does the half-life at 0.1 mg/ml [2] read?
The half-life at 0.1 mg/ml was 14.3 h.

From patent publication US9074014B2 (Ipsen Pharma S.A.S., priority 2008, dated 2015)
